From article PMC3975887, “The structures of cytosolic and plastid-located glutamine synthetases from Medicago truncatula reveal a common and dynamic architecture” (Acta Crystallographica Section D: Biological Crystallography, 2014)
Like-named read-outs stand apart in the source and are kept apart here.

Columns and labels:
[1] = biological target: Medicago truncatula plastid-located glutamine synthetase GSII-2a (mature polypeptide) (Medicago truncatula); assay: cryo-EM structure; purified GSII-2a 0.3 mg/ml vitrified; single-particle reconstruction with D5 symmetry applied, 3117 side-view particles with parallel rings, 20 Å
[2] = biological target: Medicago truncatula plastid-located glutamine synthetase GSII-2a (mature polypeptide) (Medicago truncatula); assay: native MS; high activation conditions: collision energy increased from 100 to 200 V; ammonium acetate buffer pH 7.5; decamer to pentamers in the gas phase
[3] = biological target: Medicago truncatula plastid-located glutamine synthetase GSII-2a (mature polypeptide) (Medicago truncatula); assay: native MS; nondenaturing conditions, ammonium acetate buffer pH 7.5, nano-electrospray, capillary voltage 1700 V, cone potential 50 V
[4] = biological target: Medicago truncatula plastid-located glutamine synthetase GSII-2a (mature polypeptide) (Medicago truncatula); assay: native MS; high activation conditions: collision energy increased from 100 to 200 V; ammonium acetate buffer pH 7.5; decamer to pentamers in the gas phase; remark: listed apart in the source
[5] = biological target: T1, M. truncatula GSII-1b (Medicago truncatula, UniProt O04999); assay: GS synthetase reaction inhibition, GSII-1b; assay type: biochemical
T1 sequence (O04999 1-356): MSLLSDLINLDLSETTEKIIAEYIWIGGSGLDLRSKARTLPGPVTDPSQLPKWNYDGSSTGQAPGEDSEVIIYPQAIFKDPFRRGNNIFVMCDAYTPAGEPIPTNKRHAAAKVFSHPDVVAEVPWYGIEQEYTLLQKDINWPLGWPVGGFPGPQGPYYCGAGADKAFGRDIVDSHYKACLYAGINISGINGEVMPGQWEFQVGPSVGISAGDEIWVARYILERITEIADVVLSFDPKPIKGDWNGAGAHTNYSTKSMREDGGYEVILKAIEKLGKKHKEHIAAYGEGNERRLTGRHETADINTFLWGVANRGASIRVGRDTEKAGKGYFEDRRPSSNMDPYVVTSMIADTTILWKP
Protocol: (§1) The activities of the His-tagged GS isoenzymes (GSII-1a, GSII-1b, GSII-2a and GSII-2b) were determined by quantifying the γ-glutamyl hydroxamate produced by the synthetase reaction (GSs) as described previously (Cullimore & Sims, 1981[▶]; Cullimore et al., 1982[▶]). The reactions started by the addition of 10 µg purified His-tagged GS isoenzyme to the assay mixture (100 mM Tris buffer pH 7.8, 100 mM glutamate, 8 mM ATP, 8 mM hydroxylamine, 16 mM MgSO4) were allowed to proceed at 30°C for 15 min and were stopped by adding one volume of stop solution (0.37 M FeCl3, 0.67 M HCl, 0.2 M TCA). GS specific activity was determined as the amount of γ-glutamyl hydroxamate produced per minute per milligram of purified protein (µmol min^−1 mg^−1). GS inhibition was evaluated by adding increasing concentrations of either phosphinothricin (PPT; Fluka; 0, 0.005, 0.01, 0.05, 0.1, 0.5, 1, 1.5, 2.5, 5, 10 and 20 mM) or methionine-S-sulfoximine (MSO; Sigma; 0, 0.5, 1, 1.5, 2.5, 5, 10, 20, 40 and 60 mM) to the reaction mixture. GS inhibition assays were performed at two different glutamate concentrations (20 and 100 mM). IC50 was calculated by nonlinear regression using the LogIC50 equation of GraphPad Prism5 (GraphPad Software).

[6] = biological target: T2, M. truncatula GSII-2b (Medicago truncatula, UniProt E1ANG4); assay: GS synthetase reaction inhibition, GSII-2b; assay type: biochemical
T2 sequence (E1ANG4 50-428): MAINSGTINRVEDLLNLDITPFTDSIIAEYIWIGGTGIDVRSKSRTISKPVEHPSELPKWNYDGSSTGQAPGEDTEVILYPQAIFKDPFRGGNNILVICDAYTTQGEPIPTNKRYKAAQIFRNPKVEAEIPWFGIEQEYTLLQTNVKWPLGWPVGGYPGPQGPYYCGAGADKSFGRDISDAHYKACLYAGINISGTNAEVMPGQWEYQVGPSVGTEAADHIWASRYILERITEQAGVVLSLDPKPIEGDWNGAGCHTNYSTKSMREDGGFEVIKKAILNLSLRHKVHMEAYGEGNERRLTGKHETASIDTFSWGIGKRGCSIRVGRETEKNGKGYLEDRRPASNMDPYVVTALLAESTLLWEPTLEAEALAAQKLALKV
Protocol: as §1

[7] = biological target: T3, M. truncatula GSII-1a (Medicago truncatula, UniProt O04998); assay: GS synthetase reaction inhibition, GSII-1a; assay type: biochemical
T3 sequence (O04998 1-356): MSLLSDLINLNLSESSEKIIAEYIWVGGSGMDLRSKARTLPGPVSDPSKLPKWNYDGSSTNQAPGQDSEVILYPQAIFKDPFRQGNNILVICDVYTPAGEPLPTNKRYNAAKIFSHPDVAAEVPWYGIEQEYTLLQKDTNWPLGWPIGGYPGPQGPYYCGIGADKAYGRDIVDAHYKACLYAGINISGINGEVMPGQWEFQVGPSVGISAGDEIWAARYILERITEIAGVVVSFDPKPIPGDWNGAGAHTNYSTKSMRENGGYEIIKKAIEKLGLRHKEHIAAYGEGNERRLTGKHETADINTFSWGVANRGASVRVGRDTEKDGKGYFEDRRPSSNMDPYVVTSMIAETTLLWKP
Protocol: as §1

[8] = biological target: T4, M. truncatula GSII-2a (Medicago truncatula, UniProt Q84UC1); assay: GS synthetase reaction inhibition, GSII-2a; assay type: biochemical
T4 sequence (Q84UC1 50-428): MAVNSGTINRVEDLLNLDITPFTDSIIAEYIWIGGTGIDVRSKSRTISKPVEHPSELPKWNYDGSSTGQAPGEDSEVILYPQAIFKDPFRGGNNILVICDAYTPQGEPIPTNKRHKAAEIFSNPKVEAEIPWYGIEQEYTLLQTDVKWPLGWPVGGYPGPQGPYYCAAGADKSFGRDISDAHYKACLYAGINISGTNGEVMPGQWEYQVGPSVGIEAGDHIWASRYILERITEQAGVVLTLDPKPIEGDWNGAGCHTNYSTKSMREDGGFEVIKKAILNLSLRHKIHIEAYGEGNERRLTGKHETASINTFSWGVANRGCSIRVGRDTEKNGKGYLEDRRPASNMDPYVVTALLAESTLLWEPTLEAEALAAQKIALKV
Protocol: as §1

[9] = system: plant GSII; parameters: method as in Evstigneeva et al., 2003; settings: plant GSII overall; ref Evstigneeva et al., 2003; cited from earlier work
[10] = biological target: the molecule itself; assay: crystal structure; apo form, space group P2_(1), decamer in the asymmetric unit, 2.35 Å
[11] = MSO titration using 20 mM glutamate, His-tagged enzyme, read-out: IC50 (concentration of inhibitor reducing the GS activity by 50%)
[12] = standard GS assay conditions (100 mM glutamate)

## Medicago truncatula plastid-located glutamine synthetase GSII-2a (mature polypeptide) (enzyme)
[1]
  stoichiometry N: 10
[2]
  stoichiometry N: 5
[3]
  stoichiometry N: 10
[4]
  stoichiometry N: 10

## CS(=N)(=O)CC[C@H](N)C(=O)O (some centres unmarked) [MSO, methionine-S-sulfoximine]
[5]; [11]
  IC50: 2200 µM
[5]; [12]
  GS inhibition under the standard GS assay conditions: poorly inhibited
[6]; [12]
  GS inhibition under the standard GS assay conditions: poorly inhibited
[7]; [11]
  IC50: 9500 µM
[7]; [12]
  GS inhibition under the standard GS assay conditions: poorly inhibited
[8]; [11]
  IC50: 3600 µM
[8]; [12]
  GS inhibition under the standard GS assay conditions: poorly inhibited

## CP(=O)(O)CC[C@H](N)C(=O)O [PPT, phosphinothricin]
[9]
  times more effectively inhibited by PPT than by MSO: 5–10 times
[5]
  IC50: 670 µM
[6]
  IC50: 720 µM
[7]
  IC50: 760 µM
[8]
  IC50: 260 µM

B1: Medicago truncatula cytosolic glutamine synthetase GSII-1a (enzyme, UniProt O04998 1-356, looked up)
chain: MSLLSDLINLNLSESSEKIIAEYIWVGGSGMDLRSKARTLPGPVSDPSKLPKWNYDGSSTNQAPGQDSEVILYPQAIFKDPFRQGNNILVICDVYTPAGEPLPTNKRYNAAKIFSHPDVAAEVPWYGIEQEYTLLQKDTNWPLGWPIGGYPGPQGPYYCGIGADKAYGRDIVDAHYKACLYAGINISGINGEVMPGQWEFQVGPSVGISAGDEIWAARYILERITEIAGVVVSFDPKPIPGDWNGAGAHTNYSTKSMRENGGYEIIKKAIEKLGLRHKEHIAAYGEGNERRLTGKHETADINTFSWGVANRGASVRVGRDTEKDGKGYFEDRRPSSNMDPYVVTSMIAETTLLWKP
notes: Glutamine synthetase GSII-1a, cytosolic, Medicago truncatula, UniProt O04998; Apo form; also called MtGSII-1a; MtGSII1a; source: recombinant, N-terminally His-tagged; cloning and crystallisation described previously (Seabra et al., 2009); not shown: His tag, N-terminal, kept; copies: 10
[10]
  stoichiometry N: 10
